In US20120107248A1, “IMAGING GASTROINTESTINAL VOLUMES AND MOTILITY” (MAYO FOUNDATION FOR MEDICAL EDUCATION AND RESEARCH, priority 2009, published 2012):

Tests used:
gastric wall = experiment: Abdominal MRI studies in mice with automated segmentation (Example 5); format: in vivo
Description: Ten abdominal MRI studies in mice were performed under three conditions in sequential order: fasting pre-contrast, fasting post-contrast, and postprandial post-contrast (after feeding with 80 μL egg yolk). Five studies each were conducted with a commercially-available gadolinium contrast agent (gadopentetic acid, Magnevist™) and with Gd-DOTA-3COOH-S-Pantoprazole. Mice were administered 2.5 mg of Magnevist or Gd-DOTA-3COOH-S-Pantoprazole in a volume of 10 μL intravenously. […] In these images the gastric lumen is marked “s.” The images were analyzed by standard techniques (i.e., full-width-half-maximum method). Following administration of Magnevist, the uptake signal increased diffusely, as shown by the arrow. […] In the Gd-DOTA-3COOH-S-Pantoprazole study, the algorithm only identified the stomach boundary after contrast, i.e., fasting and postprandial images, but the conjugate was capable of discriminating the stomach wall from its contents and surrounding tissues. Comparison of gastric wall signal intensity over time after intravenous Magnevist and Gd-DOTA-3COOH-S-Pantoprazole is shown in FIG. 9. Data were sampled at 120 equidistant points around the gastric wall.

[1] = in vivo; cited from earlier work

Structure (SMILES)	splenic uptake / gastro-splenic boundary (gastric wall; 2.5 mg intravenously, FIG. 7)	gastric wall signal and automated segmentation of the gastric outline (gastric wall; 2.5 mg intravenously, full-width-half-maximum method, FIG. 6)	gastric wall signal intensity over time: difference between fasting post contrast and postprandial post contrast images (gastric wall; 120 equidistant points around the gastric wall, FIG. 9)	gastric wall thickness measurements (gastric wall; segmentation algorithm, FIG. 7 and FIG. 8)	blood clearance time [1]
CNC[C@H](O)[C@@H](O)[C@H](O)[C@H](O)CO.CNC[C@H](O)[C@@H](O)[C@H](O)[C@H](O)CO.O=C([O-])CN(CCN(CC(=O)[O-])CC(=O)O)CCN(CC(=O)[O-])CC(=O)O.[Gd+3] [Magnevist, gadopentetic acid, reference compound]	marked splenic uptake	could not accurately identify the gastric outline	higher difference	overestimates stomach wall thickness	
O=C([O-])CN(CCN(CC(=O)[O-])CC(=O)O)CCN(CC(=O)[O-])CC(=O)O.[Gd+3] [Gd(DTPA), gadolinium diethylenetriaminepentaacetate]					approximately 2 minutes
